Results on four compounds are retold here after ChEMBL document CHEMBL4425170, “Novel Series of Potent Glucokinase Activators Leading to the Discovery of AM-2394” (ACS Med Chem Lett, 2016).

In brackets after ≈: the same amount, converted by molar mass.

A short description of one series: physchem. The following applies: SIF, pH 6.8.
A short description of the next series: in vivo. The following applies: mouse, po, 5 mg/kg.
Series [1] in a line: Oral bioavailability in cynomolgus monkey at 2 mg/kg. The format is ADME, organism-based, Macaca fascicularis. To be noted: in vivo.
The nature of series [2]: Cmax in cynomolgus monkey at 2 mg/kg, po. The format is ADME, organism-based, Macaca fascicularis. More on the design: dose 2 mg/kg, route oral. To be noted: in vivo.
Series [3] is described as follows: Cmax in mouse at 5 mg/kg, po. The series is classed as ADME, organism-based. More on the design: dose 5 mg/kg, route oral. To be noted: in vivo.
A short description of series [4]: Half life in mouse at 1 mg/kg, iv. The series is classed as ADME, organism-based. To be noted: in vivo.
Series [5] in a line: Volume of distribution at steady state in mouse at 5 mg/kg, po or 1 mg/kg, iv. The following applies: in vivo, read-out: Vdss. The format is ADME, organism-based.
Series [6] in a line: Cmax in dog at 2 mg/kg, po. The format is ADME, organism-based, Canis lupus familiaris. More on the design: dose 2 mg/kg, route oral. To be noted: in vivo.
The nature of series [7]: Tmax in cynomolgus monkey at 2 mg/kg, po or 0.5 mg/kg, iv. The format is ADME, organism-based, Macaca fascicularis. To be noted: in vivo.
Series [8] in a line: Cmax in rat at 2 mg/kg, po. More on the design: dose 2 mg/kg, route oral. The following applies: in vivo. The series is classed as ADME, organism-based.
Series [9] is described as follows: Half life in rat at 0.5 mg/kg, iv. To be noted: in vivo. The series is classed as ADME, organism-based.
Series [10] can be described thus: Clearance in rat at 2 mg/kg, po or 0.5 mg/kg, iv. The format is ADME, organism-based. To be noted: in vivo.
The nature of series [11]: Terminal plasma concentration in ob/ob mouse at 30 mg/kg, po administered 30 mins prior to testing by oral glucose tolerance test. The series is classed as ADME, organism-based. To be noted: read-out: Cp(T).
Series [12] is described as follows: Volume of distribution at steady state in cynomolgus monkey at 2 mg/kg, po or 0.5 mg/kg, iv. The series is classed as ADME, organism-based, Macaca fascicularis. To be noted: in vivo, read-out: Vdss.
Series [13] can be described thus: Oral bioavailability in dog at 2 mg/kg. The format is ADME, organism-based, Canis lupus familiaris. The following applies: in vivo.
The nature of series [14]: Tmax in dog at 2 mg/kg, po or 0.5 mg/kg, iv. The series is classed as ADME, organism-based, Canis lupus familiaris. The following applies: in vivo.
Series [15] in a line: Volume of distribution at steady state in rat at 2 mg/kg, po or 0.5 mg/kg, iv. The series is classed as ADME, organism-based. The following applies: in vivo, read-out: Vdss.
A short description of series [16]: Tmax in mouse at 5 mg/kg, po or 1 mg/kg, iv. The following applies: in vivo. The series is classed as ADME, organism-based.
Series [17] is described as follows: Tmax in rat at 2 mg/kg, po or 0.5 mg/kg, iv. The format is ADME, organism-based. To be noted: in vivo.
Series [18] can be described thus: Clearance in mouse at 5 mg/kg, po or 1 mg/kg, iv. The series is classed as ADME, organism-based. To be noted: in vivo.
Series [19] can be described thus: Half life in cynomolgus monkey at 0.5 mg/kg, iv. The series is classed as ADME, organism-based, Macaca fascicularis. To be noted: in vivo.
Series [20] in a line: Terminal plasma concentration in ob/ob mouse at 3 mg/kg, po administered 30 mins prior to testing by oral glucose tolerance test. The following applies: read-out: Cp(T). The series is classed as ADME, organism-based.
A short description of series [21]: Half life in dog at 0.5 mg/kg, iv. To be noted: in vivo. The series is classed as ADME, organism-based, Canis lupus familiaris.
Series [22] in a line: Volume of distribution at steady state in dog at 2 mg/kg, po or 0.5 mg/kg, iv. To be noted: in vivo, read-out: Vdss. The format is ADME, organism-based, Canis lupus familiaris.
Series [23] is described as follows: Clearance in cynomolgus monkey at 2 mg/kg, po or 0.5 mg/kg, iv. The format is ADME, organism-based, Macaca fascicularis. To be noted: in vivo.
Series [24] is described as follows: Terminal plasma concentration in ob/ob mouse at 10 mg/kg, po administered 30 mins prior to testing by oral glucose tolerance test. The format is ADME, organism-based. The following applies: read-out: Cp(T).
Series [25] can be described thus: Clearance in dog at 2 mg/kg, po or 0.5 mg/kg, iv. The series is classed as ADME, organism-based, Canis lupus familiaris. To be noted: in vivo.

In general, solubility refers to the concentration that dissolves in the medium under given conditions. Usually bioavailability stands for dose-corrected exposure relative to a reference, in per cent. For the compound `CNC(=O)Nc1cc(Oc2cncc(C)c2)c(-c2ccc(OCCO)nc2)cn1`, the solubility in “physchem” was less than 1 µM. This compound registered a bioavailability in “in vivo” of 6%.

Broadly, the Cmax is the peak of the concentration-time curve. In general, half-life refers to the time needed for the level to fall by half in the phase considered. By Tmax is commonly meant the time from dosing to the highest level. Take `CNC(=O)Nc1cc(Oc2cncc(C)c2)c(-c2ccc(OCC(C)(C)O)nc2)cn1`: the bioavailability in series [1] worked out at 70%; in [13], 99%; in the series “in vivo” it was 25%. Besides, the Cmax is 1150 nM in series [2], 350 nM in series [3], 3520 nM in [6] and 490 nM in series [8]. The half-life in series [4] was 2 h; in series [9], 1.4 h; in series [19], 6.7 h; in series [21], 6.5 h. The Vd in [5] came out at 0.59 L/kg; in series [12], 2.29 L/kg; in [15], 2.18 L/kg; in series [22], 1.49 L/kg. For the same compound, the Tmax in series [7] was 1.67 h; in [14], 1.33 h; in series [16], 0.33 h; in series [17], 0.83 h. Also, the clearance in [10] was 27.3 mL/min/kg; in series [18] it was 6.17 mL/min/kg; in series [23], 10 mL/min/kg; in series [25] it was 4.17 mL/min/kg. In addition, the figures for the concentration at 0.5 h in series [11], in [20] and in series [24] were 38000 nM, 1200 nM and 3600 nM, respectively. In addition, the concentration in solution in “physchem” (solubility) was 46 µM (≈ 19.5 µg/mL).

Consider `CNC(=O)Nc1cc(Oc2cncc(C)c2)c(-c2ccc(OC[C@H](C)O)nc2)cn1`, for which the concentration in solution in the series “physchem” (solubility) was 176 µM (≈ 72.1 µg/mL).

`CNC(=O)Nc1cc(Oc2cncc(C)c2)c(-c2ccc(OC[C@@H](C)O)nc2)cn1` registered a solubility in the series “physchem” of 226 µM (≈ 92.5 µg/mL).
